Data published in US12558357B2, “Tetrahydroquinazoline derivatives as selective cytotoxic agents” (Merck Sharp & Dohme LLC, priority 2020, dated 2026).

These compounds were tested on PBMCs infected with VSV-G pseudotyped HIV virus (VSV-G/pNLG1-P2A-ΔEnv) (assay: cells). Details: Homo sapiens, PBMC, read-out: EC50 (HIV-TACK cell kill activity).
Type: cell-based, human

Structure (SMILES) | EC50
CC(C)C#CC1(C(F)(F)F)NC(=O)Nc2cc(Cn3cnccc3=O)ccc21 (racemic) [Example 77, (S)-4-(3-methylbut-1-yn-1-yl)-7-((6-oxopyrimidin-1(6H)-yl)methyl)-4-(trifluoromethyl)-3,4-dihydroquinazolin-2(1H)-one AND (R)-4-(3-methylbut-1-yn-1-yl)-7-((6-oxopyrimidin-1(6H)-yl)methyl)-4-(trifluoromethyl)-3,4-dihydroquinazolin-2(1H)-one] | 87 nM
CN1C(=O)Nc2cc(Cn3cnccc3=O)c(Cl)cc2C1(C#CC1CC1)C(F)(F)F (racemic) [Example 78, (S)-6-chloro-4-(cyclopropylethynyl)-3-methyl-7-((6-oxopyrimidin-1(6H)-yl)methyl)-4-(trifluoromethyl)-3,4-dihydroquinazolin-2(1H)-one AND (R)-6-chloro-4-(cyclopropylethynyl)-3-methyl-7-((6-oxopyrimidin-1(6H)-yl)methyl)-4-(trifluoromethyl)-3,4-dihydroquinazolin-2(1H)-one] | 38 nM
CC(C)CC#CC1(C(F)(F)F)NC(=O)Nc2cc(Cn3cnccc3=O)ccc21 (racemic) [Example 79, (S)-4-(4-methylpent-1-yn-1-yl)-7-((6-oxopyrimidin-1(6H)-yl)methyl)-4-(trifluoromethyl)-3,4-dihydroquinazolin-2(1H)-one AND (R)-4-(4-methylpent-1-yn-1-yl)-7-((6-oxopyrimidin-1(6H)-yl)methyl)-4-(trifluoromethyl)-3,4-dihydroquinazolin-2(1H)-one] | 230 nM
N#Cc1cc2c(cc1Cn1cnccc1=O)NC(=O)NC2(C#CC1CC1)C(F)(F)F (single isomer, unassigned) [Example 75] | 221 nM
CN1C(=O)Nc2cc(Cn3ccnc(N)c3=O)c(Cl)cc2C1(C#CC1CC1)C(F)(F)F (single isomer, unassigned) [Example 76] | 42 nM
O=C1Nc2cc(Cn3cnccc3=O)c(F)cc2[C@@](C#CC2CC2)(C(F)(F)F)N1 [Example 1, (S)-4-(cyclopropylethynyl)-6-fluoro-7-((6-oxopyrimidin-1(6H)-yl)methyl)-4-(trifluoromethyl)-3,4-dihydroquinazolin-2(1H)-one] | 22 nM
Nc1nccn(Cc2cc3c(cc2F)[C@@](C#CC2CC2)(C(F)(F)F)NC(=O)N3)c1=O [Example 2, (S)-7-((3-amino-2-oxopyrazin-1(2H)-yl)methyl)-4-(cyclopropylethynyl)-6-fluoro-4-(trifluoromethyl)-3,4-dihydroquinazolin-2(1H)-one] | 15 nM
Cc1cc(=O)n(Cc2cc3c(cc2Cl)[C@@](C#CC2CC2)(C(F)(F)F)NC(=O)N3)cn1 [Example 3, (S)-6-chloro-4-(cyclopropylethynyl)-7-((4-methyl-6-oxopyrimidin-1(6H)-yl)methyl)-4-(trifluoromethyl)-3,4-dihydroquinazolin-2(1H)-one] | 26 nM
CC(F)(F)[C@@]1(C#CC2CC2)NC(=O)Nc2cc(Cn3cnccc3=O)c(F)cc21 [Example 4, (S)-4-(cyclopropylethynyl)-4-(1,1-difluoroethyl)-6-fluoro-7-((6-oxopyrimidin-1(6H)-yl)methyl)-3,4-dihydroquinazolin-2(1H)-one] | 16 nM
Nc1cncn(Cc2cc3c(cc2F)[C@@](C#CC2CC2)(C(F)(F)F)NC(=O)N3)c1=O [Example 5, (S)-7-((5-amino-6-oxopyrimidin-1(6H)-yl)methyl)-4-(cyclopropylethynyl)-6-fluoro-4-(trifluoromethyl)-3,4-dihydroquinazolin-2(1H)-one] | 35 nM
O=C1Nc2cc(Cn3cnc(C(F)F)cc3=O)c(F)cc2[C@@](C#CC2CC2)(C(F)(F)F)N1 [Example 6, (S)-4-(cyclopropylethynyl)-7-((4-(difluoromethyl)-6-oxopyrimidin-1(6H)-yl)methyl)-6-fluoro-4-(trifluoromethyl)-3,4-dihydroquinazolin-2(1H)-one] | 38 nM
COCc1cc(=O)n(Cc2cc3c(cc2F)[C@@](C#CC2CC2)(C(F)(F)F)NC(=O)N3)cn1 [Example 7, (S)-4-(cyclopropylethynyl)-6-fluoro-7-((4-(methoxymethyl)-6-oxopyrimidin-1(6H)-yl)methyl)-4-(trifluoromethyl)-3,4-dihydroquinazolin-2(1H)-one] | 44 nM
Nc1c(Cl)ncn(Cc2cc3c(cc2F)[C@@](C#CC2CC2)(C(F)(F)F)NC(=O)N3)c1=O [Example 8, (S)-7-((5-amino-4-chloro-6-oxopyrimidin-1(6H)-yl)methyl)-4-(cyclopropylethynyl)-6-fluoro-4-(trifluoromethyl)-3,4-dihydroquinazolin-2(1H)-one] | 46 nM
Nc1nccn(Cc2ccc3c(c2)NC(=O)N[C@]3(C#CC2CC2)C(F)(F)F)c1=O [Example 9, (S)-7-((3-amino-2-oxopyrazin-1(2H)-yl)methyl)-4-(cyclopropylethynyl)-4-(trifluoromethyl)-3,4-dihydroquinazolin-2(1H)-one] | 30 nM
Nc1c(Cl)ncn(Cc2cc3c(cc2Cl)[C@@](C#CC2CC2)(C(F)(F)F)NC(=O)N3)c1=O [Example 11, (S)-7-((5-amino-4-chloro-6-oxopyrimidin-1(6H)-yl)methyl)-6-chloro-4-(cyclopropylethynyl)-4-(trifluoromethyl)-3,4-dihydroquinazolin-2(1H)-one] | 33 nM
O=C1Nc2cc(Cn3cnc(Cl)cc3=O)c(Cl)cc2[C@@](C#CC2CC2)(C(F)(F)F)N1 [Example 12, (S)-6-chloro-7-((4-chloro-6-oxopyrimidin-1(6H)-yl)methyl)-4-(cyclopropylethynyl)-4-(trifluoromethyl)-3,4-dihydroquinazolin-2(1H)-one] | 33 nM
Nc1cc(=O)n(Cc2cc3c(cc2Cl)[C@@](C#CC2CC2)(C(F)(F)F)NC(=O)N3)cn1 [Example 13, (S)-7-((4-amino-6-oxopyrimidin-1(6H)-yl)methyl)-6-chloro-4-(cyclopropylethynyl)-4-(trifluoromethyl)-3,4-dihydroquinazolin-2(1H)-one] | 46 nM
O=C1Nc2cc(Cn3cnccc3=O)c(Br)cc2[C@@](C#CC2CC2)(C(F)(F)F)N1 [Example 14, (S)-6-bromo-4-(cyclopropylethynyl)-7-((6-oxopyrimidin-1(6H)-yl)methyl)-4-(trifluoromethyl)-3,4-dihydroquinazolin-2(1H)-one] | 31 nM
COCc1cc(=O)n(Cc2ccc3c(c2)NC(=O)N[C@]3(C#CC2CC2)C(C)(F)F)cn1 [Example 15, (S)-4-(cyclopropylethynyl)-4-(1,1-difluoroethyl)-7-((4-(methoxymethyl)-6-oxopyrimidin-1(6H)-yl)methyl)-3,4-dihydroquinazolin-2(1H)-one] | 65 nM
Nc1nc(Br)cn(Cc2cc3c(cc2F)[C@@](C#CC2CC2)(C(F)(F)F)NC(=O)N3)c1=O [Example 16, (S)-7-((3-amino-5-bromo-2-oxopyrazin-1(2H)-yl)methyl)-4-(cyclopropylethynyl)-6-fluoro-4-(trifluoromethyl)-3,4-dihydroquinazolin-2(1H)-one] | 38 nM
CC(F)(F)[C@@]1(C#CC2CC2)NC(=O)Nc2cc(Cn3ccnc(N)c3=O)c(Cl)cc21 [Example 17, (S)-7-((3-amino-2-oxopyrazin-1(2H)-yl)methyl)-6-chloro-4-(cyclopropylethynyl)-4-(1,1-difluoroethyl)-3,4-dihydroquinazolin-2(1H)-one] | 17 nM
Cc1cc(=O)n(Cc2cc3c(cc2Cl)[C@@](C#CC2CC2)(C(C)(F)F)NC(=O)N3)cn1 [Example 18, (S)-6-chloro-4-(cyclopropylethynyl)-4-(1,1-difluoroethyl)-7-((4-methyl-6-oxopyrimidin-1(6H)-yl)methyl)-3,4-dihydroquinazolin-2(1H)-one] | 15 nM
COCc1cc(=O)n(Cc2cc3c(cc2Cl)[C@@](C#CC2CC2)(C(C)(F)F)NC(=O)N3)cn1 [Example 19, (S)-6-chloro-4-(cyclopropylethynyl)-4-(1,1-difluoroethyl)-7-((4-(methoxymethyl)-6-oxopyrimidin-1(6H)-yl)methyl)-3,4-dihydroquinazolin-2(1H)-one] | 14 nM
Nc1nccn(Cc2c(F)cc3c(c2F)NC(=O)N[C@]3(C#CC2CC2)C(F)(F)F)c1=O [Example 20, (S)-7-((3-amino-2-oxopyrazin-1(2H)-yl)methyl)-4-(cyclopropylethynyl)-6,8-difluoro-4-(trifluoromethyl)-3,4-dihydroquinazolin-2(1H)-one] | 47 nM
O=C1Nc2cc(Cn3cnccc3=O)ccc2[C@@](C#CC2CC2)(C(F)(F)F)N1 [Example 21, (S)-4-(cyclopropylethynyl)-7-((6-oxopyrimidin-1(6H)-yl)methyl)-4-(trifluoromethyl)-3,4-dihydroquinazolin-2(1H)-one] | 181 nM
O=C1Nc2cc(Cn3cnc(C4CC4)cc3=O)ccc2[C@@](C#CC2CC2)(C(F)(F)F)N1 [Example 22, (S)-7-((4-cyclopropyl-6-oxopyrimidin-1(6H)-yl)methyl)-4-(cyclopropylethynyl)-4-(trifluoromethyl)-3,4-dihydroquinazolin-2(1H)-one] | 288 nM
O=C1Nc2cc(Cn3ncccc3=O)ccc2[C@@](C#CC2CC2)(C(F)(F)F)N1 [Example 23, (S)-4-(cyclopropylethynyl)-7-((6-oxopyridazin-1(6H)-yl)methyl)-4-(trifluoromethyl)-3,4-dihydroquinazolin-2(1H)-one] | 250 nM
Nc1ccnn(Cc2ccc3c(c2)NC(=O)N[C@]3(C#CC2CC2)C(F)(F)F)c1=O [Example 24, (S)-7-((5-amino-6-oxopyridazin-1(6H)-yl)methyl)-4-(cyclopropylethynyl)-4-(trifluoromethyl)-3,4-dihydroquinazolin-2(1H)-one] | 210 nM
O=C1Nc2cc(Cn3cnc(C(F)(F)F)cc3=O)ccc2[C@@](C#CC2CC2)(C(F)(F)F)N1 [Example 25, (S)-4-(cyclopropylethynyl)-7-((6-oxo-4-(trifluoromethyl)pyrimidin-1(6H)-yl)methyl)-4-(trifluoromethyl)-3,4-dihydroquinazolin-2(1H)-one] | 194 nM
Nc1ccnn(Cc2cc3c(cc2F)[C@@](C#CC2CC2)(C(F)(F)F)NC(=O)N3)c1=O [Example 26, (S)-7-((5-amino-6-oxopyridazin-1(6H)-yl)methyl)-4-(cyclopropylethynyl)-6-fluoro-4-(trifluoromethyl)-3,4-dihydroquinazolin-2(1H)-one] | 226 nM
